{"source": "patent US20100029675A1", "about": "“Pyrimidine-2, 4-diamine JAK2 Kinase inhibiting anti-inflammation use” (priority 2008, published 2010)", "key": {"[1]": {"test_system": "JAK2-dependent phosphorylation of STAT5 (phospho-Y694) in AGS gastric cancer cell line", "experiment": "Western blot of STAT5 phosphorylation in AGS cells", "assay_type": "cell-based", "settings": "24 hours, 5-10 uM, densitometry", "experimental": "(§1) In order to detect specific inhibition of JAK2 enzyme in cell culture, Western blot assays may also be performed. For this, cells which have been treated with a potential JAK2 inhibitor are lysed with a buffer specific for the isolation and preservation of proteins (1% Nonidet P-40, 120 mM NaCl, 30 mM Tris pH 7.4, 1:100 Protease Inhibitor Cocktail III [Calbiochem/EMD Biosciences], 1:100 Phosphatase Inhibitor Cocktail 1 [Sigma-Aldrich, Saint Louis, Mo.], 1:100 Phosphatase Inhibitor Cocktail 2 [Sigma-Aldrich, Saint Louis, Mo.]). The protein concentration in these lysates is then quantified using the BCA Protein Assay Kit (Pierce). Known amounts of protein, e.g. 50 ug, are loaded onto 10% SDS-polyacrylamide gels and are subjected to reducing, denaturing SDS-PAGE. […]\n(§2) In this example, Compound 1-4 is shown to reduce the JAK2-dependent phosphorylation of STAT3 and STAT5 in the AGS gastric cancer cell line. […] Following incubation, cells were lysed and total protein isolated and quantified. […] Densitometry analysis was performed in order to quantify the amount of STAT3 and STAT5 phosphorylation in these treated cells. Phospho-STAT3 and phospho-STAT5 were compared to total STAT3 and STAT5 and the proportion of STAT phosphorylation relative to untreated controls was determined."}, "[2]": {"test_system": "JAK2-dependent phosphorylation of STAT3 (phospho-Y705) in AGS gastric cancer cell line", "experiment": "Western blot of STAT3 phosphorylation in AGS cells", "assay_type": "cell-based", "settings": "24 hours, 5-10 uM, densitometry", "experimental": "as §1, §2"}}}
{"smiles": "CN1CCN(c2ccc(Nc3nccc(Nc4ccc(F)c(Cl)c4)n3)cc2)CC1", "note": "[Compound 1-4, N4-(3-chloro-4-fluorophenyl)-N2-(4-(4-methylpiperazin-1-yl)phenyl)pyrimidine-2,4-diamine]", "values": [{"measurement": "STAT5 phosphorylation relative to untreated controls", "setting": "[1]", "value": "reduce"}, {"measurement": "STAT3 phosphorylation relative to untreated controls", "setting": "[2]", "value": "reduce"}]}
